Source: patent US10993916B2, “Crystalline microparticles of a beta-agonist coated with a fatty acid” (Chiesi Farmaceutici S.p.A., priority 2011, dated 2021)

Tests used:
Format in all cases: physicochemical
[1] = Aerosol performances of the pMDI formulations of formoterol fumarate microparticles (Next Generation Impactor); settings: pMDI suspension in HFA134a, nominal dose 12 μg, mean±S.D.
Experimental: To prepare pMDI aerosol suspension formulations with a nominal dose of the active ingredient of 12 μg, the aluminum canisters were filled in a controlled atmosphere room, by successively introducing 2.4 mg the microparticles of Example 1 and then 10 ml pressurized HFA134a gas. The devices were fitted with a 50 μl APTAR valve and a Bespak actuator of 0.3 mm. For comparative purposes, a pMDI aerosol suspension formulations comprising micronized formoterol fumarate dihydrate was also prepared. The sedimentation rate was determined using a Turbiscan apparatus (Formulaction SA, France).
(§1) The pMDI formulations were also characterized in terms of aerosol performances. They were assessed using a Next Generation Impactor to according to the procedure described in the European Pharmacopoeia 7th edition, 2011, part 2.9.18.
(§2) Quantification of formoterol fumarate dihydrate (FF) was performed using a HPLC method. The following parameters were determined: • i) delivered dose (DD) is calculated from the cumulative deposition in the […], divided by the number of actuations per experiment; • ii) fine particle mass (FPM) is obtained by interpolation of the cumulative percentage undersize of drug mass deposition versus cut off diameter. The FPM corresponds to particles of diameter ≤5.0 microns, divided by the number of actuations per experiment. • iii) respirable fraction (fine particle fraction=FPF) which is the percent ratio between the fine particle mass and the delivered dose. • iv) mass median aerodynamic diameter (MMAD) which is the diameter around which the mass aerodynamic diameters of the emitted particles are distributed equally;

[2] = Aerosol performances of the powder formulations (Next Generation Impactor, RS01/7 inhaler); settings: dry powder with alpha-lactose monohydrate carrier, 6 μg drug to 10 mg carrier, mean±S.D.
Experimental: To prepare powder formulations, the microparticles of Example 1 FF-myr 0.5 and Ff-myr 2.0 were mixed in a Turbula mixer with alpha-lactose monohydrate having a mass diameter comprised between 90 and 150 μm as a carrier, to obtain a ratio of 6 μg of drug to 10 mg of carrier. […] Each powder was filled in hard HMPC gelatine capsules, in turn loaded in a RS01/7 unit dose inhaler (Plastiape, Italy).
The aerosol performances were evaluated using a Next Generation Impactor (NGI) according to the procedure described in European Pharmacopoeia 7th edition, 2011, part 2.9.18, pages 281-285. The results (mean±S.D.) in terms of delivered dose (DD), fine particle mass (FPM), fine particle fraction (FPF) and mass median aerodynamic diameter (MMAD), are reported in Table 3.

[3] = Aerosol performances of the pMDI formulations of salmeterol xinafoate microparticles (Next Generation Impactor); settings: pMDI suspension in HFA134a, FEP-coated canisters, nominal dose 25 μg, mean±S.D.
Experimental: as §1, §2
To prepare pMDI aerosol suspension formulations with a nominal dose of the active ingredient of 25 μg, canisters coated with FEP were filled in a controlled atmosphere room, by successively introducing 3.0 mg the microparticles of Example 5 and then 6 ml pressurized HFA134a gas. The devices were fitted with a 50 μl APTAR valve and a Bespak actuator of 0.3 mm. For comparative purposes, a pMDI aerosol suspension formulations comprising micronized salmeterol xinafoate was also prepared. The pMDI formulations were characterized in terms of aerosol performances. They were assessed as described in Example 3.

| Structure (SMILES) | DD (delivered dose) [1] | FPF (fine particle fraction, respirable fraction) [1] | FPM (fine particle mass, ≤5.0 microns) [1] | MMAD (mass median aerodynamic diameter) [1] | DD (delivered dose) [2] | FPF (fine particle fraction) [2] | FPM (fine particle mass) [2] | MMAD (mass median aerodynamic diameter) [2] | DD (delivered dose) [3] | FPF (fine particle fraction) [3] | FPM (fine particle mass) [3] | MMAD (mass median aerodynamic diameter) [3] |
| --- | --- | --- | --- | --- | --- | --- | --- | --- | --- | --- | --- | --- |
| COc1ccc(CC(C)NCC(O)c2ccc(O)c(NC=O)c2)cc1.COc1ccc(CC(C)NCC(O)c2ccc(O)c(NC=O)c2)cc1.O.O.O=C(O)/C=C/C(=O)O (stereo not drawn) [FF raw material, formoterol fumarate dihydrate] | 8.34 ± 0.32 µg | 81.9 ± 2.9% | 6.84 ± 0.51 µg | 1.92 ± 0.00 μm | 73 ± 0.02 µg | 14.03 ± 0.82% | 0.71 ± 0.04 µg | 2.36 ± 0.05 μm |  |  |  |  |
| OCc1cc(C(O)CNCCCCCCOCCCCc2ccccc2)ccc1O (stereo not drawn) [SX raw, salmeterol xinafoate] |  |  |  |  |  |  |  |  | 14.28 ± 1.72 µg | 29.74 ± 1.75% | 4.23 ± 0.25 µg | 2.79 ± 0.39 μm |
